Test results from patent US9216197B2, “Topical formulations of tellurium-containing compounds” (BIOMAS LTD., priority 2006, dated 2015).

Columns and labels:
[1] = AS101 solubility profile: solubility and stability (by coloration detection) in various solvents; assay type: physicochemical; conditions: for Coloration / Solubility: 10% by weight AS101, ambient temperature, after 24 hours
Protocol: In a search for an improved formulation for topical application, the solubility and stability (by coloration detection) of AS101 in various hydrophilic and lipophilic solvents were determined. Since it is commonly known that topically applied formulations have better skin absorption and feel when the active pharmaceutical ingredient is solubilized or is in a molecular form, a desirable topical formulation should be characterized by high solubility and/or dispersability of the active ingredient therein.
Thus, solutions containing 10% by weight of AS101 in each solvent, were prepared by mixing AS101 in the solvent at ambient temperature.

[2] = Storage of AS101 samples in scintillation glass bottles with aluminum laminated non-sealed caps; assay type: physicochemical; conditions: 30 days at ambient temperature, scintillation glass bottle with non-sealed cap
Protocol: FIGS. 1A-B present images of the content and packaging components of the containers in which the AS101 powder (FIG. 1A) and the […] AS101 […] solution in DMSO (FIG. 1B) were provided, upon 30 days of storage at ambient temperature.
The white crystalline coarse powder was placed in a scintillation glass bottle with a non-sealed cap.
A 20% (by weight) solution of AS101 in DMSO was prepared. The solution appeared as a yellow liquid with a cloudy dispersion evolving upon mixing. […] However, some unidentified particles were observed.

[3] = Microscopic evaluation of samples and polarized light crystallography; assay type: physicochemical
Excerpt: Microscopic Evaluation of Samples and Polarized Light Crystallography: Formulation Stability Measurements

[4] = Compatibility with aluminum tube packaging and metal equipment; assay type: physicochemical; conditions: any contact with metal equipment
[5] = Heating the mixture of AS101 and propylene glycol; assay type: physicochemical
[6] = AS101 solubility profile: solubility and stability (by coloration detection) in various solvents; assay type: physicochemical; conditions: hydroxycellulose
rats = conditions: intravenous and intramuscular administration; cited from earlier work

SMILES: Cl[TeH]1(Cl)(Cl)OCCO1 [AS101, ammonium trichloro(dioxyethylene-O,O′)tellurate]
- Coloration ([1]; 1% acetic acid): No
- Solubility ([1]; 1% acetic acid): No
- Coloration ([1]; Alkyl benzoate): No
- Solubility ([1]; Alkyl benzoate): No
- Coloration ([1]; Arlamol E): No
- Solubility ([1]; Arlamol E): No
- Coloration ([1]; Butyleneglycol): No
- Solubility ([1]; Butyleneglycol): Yes
- Coloration ([1]; DMI): No
- Solubility ([1]; DMI): No
- Coloration ([1]; DMSO): No
- Solubility ([1]; DMSO): Yes
- Coloration ([1]; Glycofurol): No
- Solubility ([1]; Glycofurol): Yes
- Coloration ([1]; Hexylene glycol): No
- Solubility ([1]; Hexylene glycol): No
- Coloration ([1]; IPM): No
- Solubility ([1]; IPM): No
- Coloration ([1]; MCT oil): No
- Solubility ([1]; MCT oil): No
- Coloration ([1]; Mineral oil): No
- Solubility ([1]; Mineral oil): No
- Coloration ([1]; PEG 200): No
- Solubility ([1]; PEG 200): Yes
- Coloration ([1]; PEG 400): No
- Solubility ([1]; PEG 400): Yes
- Coloration ([1]; Propylene Glycol): No
- Solubility ([1]; Propylene Glycol): Yes
- Coloration ([1]; Silicone oil): Black
- Solubility ([1]; Silicone oil): No
- Coloration ([1]; Transcutol): No
- Solubility ([1]; Transcutol): Yes
- Precipitation or re-crystallization of AS101 ([1]; amphiphilic glycolic solvents: PEG, butyleneglycol, gycofurol, propylene glycol and TRANSCUTOL, during the tested period): no precipitation or re-crystallization
- State of the aluminum laminate cap after storage [2]: chemically and physically decomposed
- Crystals under polarized light ([3]; polarized light): distinct crystals producing birefrigerence
- Particle diameter ([3]; powder): 20-40 microns
- Color upon contact with metal equipment [4]: dark, black color
- Change upon heating the mixture of AS101 and propylene glycol [5]: no change was observed
- Solution coloration (compatibility) [6]: unacceptable solution coloration
- LD50 relative to the immunologically effective dose (rats): 500-1000 folds
